The source of these data is patent US20240293337A1, “USE OF DOXERCALCIFEROL TO TREAT AND/OR PREVENT UTERINE FIBROIDS OR POLYCYSTIC OVARY SYNDROME” (priority 2023, published 2024).

Series [1] concerns Human MSC derived adipocytes. Kind of series: MSC derived adipocyte differentiation, 14 days, morphology and oil red-O staining. Type of series: cell-based. The conditions noted are these: 100 nM. Here is the method:
Human mesenchymal stem cells (MSC) are used as an in vitro cell culture model of adipocyte precursors to assess adipocyte differentiation. MSC cells are purchased from (Lonza). The cells are cultured in the DMEM/F12 media containing 10% FBS. At approximately 80% confluence, the cells are trypsinized using TrypLE select enzyme (Gibco, MA) and are serially expanded. At the end of the culture expansion, MSCs are collected and centrifuged at 300×g for 5 minutes. Human MSCs are treated with doxercalciferol and are cultured in adipocyte induction medium for 14 days. Mesenchymal Adipogenesis Kit (Sigma) and manufacturer's induction protocol are used for adipocyte induction. Imaging and morphology analysis is performed on days 1, 7, 10, and 14. On day 14 when adipocyte differentiation is completed, the cells undergo oil red-O staining and are imaged for further morphology analysis.

The subject of series [2] is H295R cells. The experiment in a line: H295R theca-like cells, cell morphology and cell number after 24 h treatment. Type of series: cell-based, human. The settings on record: 100 nM. Here is the method: Human adrenocortical-carcinoma cells (H295R cells) are used as an in vitro cell culture model of ovarian theca cells to assess androgen production. H295R cells are purchased from ATCC (Manassas, VA, USA, cat. no. ATCC® CRL-2128™) and cultured per the recommended guidelines. These cells are isolated from a donor. Briefly, H295R cells are cultured in flasks pre-coated with extracellular matrix (Gibco, USA, cat. no. S-006-100) with DMEM/F12 (Gibco, cat. no. 21041025) and 2.5% Nu-Serum (Corning, USA). The cells are subcultured at a ratio of 1:4, resulting in a cell density of approximately 3×10^6 in T75 flasks.
(§1) H295R cells are subcultured in T75 flasks for 24 hours. Cells are then treated for 24 hours with serum free basal media as a control or doxercalciferol at 1 nM, 10 nM, or 100 nM diluted in basal media (serum-free) at a 1:1 ratio. After the incubation period, cells are imaged and analyzed for morphology and cell count. Cells are then collected for analysis of steroidogenesis-related gene expression. Cell culture media are collected and used for testosterone quantification using ELISA based Testosterone Parameter Assay Kit (R&D system) per the manufacturer's protocol. The testosterone level is quantified using a multimode microplate reader system, Varioskan LUX Multimode Microplate Reader (Thermo Fisher).

The subject of series [3] is H295R cells. The experiment in a line: Testosterone production in H295R cell conditioned media (ELISA). Type of series: cell-based, human. The settings on record: 24 hours. Here is the method: as §1
In general terms: ELISA stands for enzyme-linked immunosorbent assay.

A short description of series [4]: Body weight in letrozole induced PCOS mouse model. In kind it is in vivo, C57BL/6 mice. The conditions noted are these: 300 ng/kg i.p. 3 times per week for 6 weeks. Here is the method:
2.5-week-old female C57BL/6 mice (Charles River, MA, USA) are housed in a vivarium for 1 week under specific pathogen-free conditions. The animal experiment protocol for this study is approved, and all animal experiments are performed in compliance with policies and guidelines for use of laboratory animals. At 3.5 weeks of age, mice (n=11/group) are subcutaneously implanted with a placebo or 5 mg letrozole (LTZ) pellet (Innovative Research of America, Sarasota, FL, USA), which provides a constant release of LTZ (50 μg/day). Body weight is monitored weekly before and post-implantation. Body weight and insulin resistance (measured by glucose tolerance test, GTT) are used to monitor development of PCOS characteristics. Five weeks after placebo or LTZ pellet implantation, mice undergo intraperitoneal injection of doxercalciferol (300 ng/kg) or saline 3 times per week for 6 weeks. Six weeks after doxercalciferol treatment, the mice are anesthetized and ovary, uterus, gonadal white fat, kidney, and liver tissue are collected. Each of these tissues are fixed in 4% paraformaldehyde for further histological analysis.

In series [5] the test system is letrozole induced polycystic ovary syndrome (PCOS) mouse models. The experiment in a line: Histology (H&E) of PCOS mouse tissues. Type of series: in vivo, C57BL/6 mice. The conditions noted are these: after five weeks of treatment. Here is the method:
[…] […] Each of these tissues are fixed in 4% paraformaldehyde for further histological analysis. Ovary, uterus, gonadal white fat, kidney, and liver tissue are collected and fixed in 4% paraformaldehyde. Tissue sections are stained with hematoxylin-eosin (H&E). Histological analyses are performed using Asperio ImageScope (Leica Biosystem, Wetzlar, Germany).

The test system of series [6] is patient derived xenograft (PDX) mouse model of uterine fibroids (UF). Kind of series: Differentially expressed gene (DEG) analysis by RNA sequencing in PDX UFs. Type of series: in vivo, NOD/SCID mice. The settings on record: UFs treated with doxercalciferol compared to control. Here is the method: (§2) After xenograft mice undergo intraperitoneal injection of doxercalciferol (300 ng/kg, 3 times per week) or saline for 6 weeks. Body weight is monitored weekly during doxercalciferol treatment. Six weeks after doxercalciferol treatment insulin resistance is assessed using GTT and then mice are anesthetized and blood is collected to measure liver enzyme and AMH levels, ovary tissue is removed for histological analysis, total RNA is extracted for sequencing, and tumor size is measured with a digital caliper.
Total RNA is extracted from PDX mice after doxercalciferol treatment. EdgeR is used to identify DEGs with p-values of (p)<0.01). GO and KEGG enrichment analysis are performed to determine the implication of the DEGs at the biologically functional level.

Another series concerns ovary. The experiment in a line: Ovarian follicle counts in PDX UF mice (H&E histology). In kind it is in vivo, NOD/SCID mice. The conditions noted are these: vs untreated control. Here is the method: as §2
Ovary tissue is collected and fixed in 4% paraformaldehyde. Tissue sections are stained with hematoxylin-eosin (H&E). Histological analyses are performed.

A short description of series [7]: Serum chemistry in PCOS mice. Type of series: in vivo, C57BL/6 mice. The conditions noted are these: after five weeks of treatment, most of the serum levels.

Each structure is given as a SMILES string.

In the case of `C=C1/C(=C\C=C2/CCC[C@]3(C)[C@@H]([C@H](C)/C=C/[C@H](C)C(C)C)CC[C@@H]23)C[C@@H](O)C[C@@H]1O` [doxercalciferol], the “Oil red-O staining, presence of adipocytes” value in series [1] (1 nM, 10 nM, day 14) was “presence of adipocytes in all treatment groups except the 100 nM group”. Further, the cell morphology entry in series [1] (14 days) is “most cells dead”. In addition, the cell morphology entry in the series on H295R cells [2] is reported as “most of the cells in the 100 nM doxercalciferol treatment group are dead”. In addition, the cell number result in the series with H295R cells [2] (vs other groups) is listed as “significantly fewer cells”. In addition, in the series on H295R cells [3] (1 nM), the Testosterone production entry was “significantly decreased”. Moreover, the Testosterone production result with H295R cells [3] (10 nM) is on record as “not significantly changed”. In addition, the Testosterone production entry in the series with H295R cells [3] (100 nM) is “significantly decreased”. Further, in series [4], the “mouse body weight after treatment, vs control mice” value was “no significant weight difference”; the “mouse body weight after treatment, vs untreated PCOS mice” value is “PCOS mice weigh significantly more than both control and doxercalciferol treated PCOS mice”. Also, the “mouse body weight during treatment” value in series [4] (PCOS mice) is “lowers PCOS mouse weight”. The “kidney and liver histology” value in series [5] (PCOS mice) is recorded as “no significant evidence of tissue damage or inflammation”. The “ovary histology (follicles)” value in series [5] (PCOS mice, untreated PCOS mice have numerous cysts) was “good numbers of follicles”. In series [5], the “gonad white fat histology, adipocyte size vs untreated PCOS mice” value was “reduced adipocyte size” and the “uterus histology, vs untreated PCOS mice” value is reported as “improved uterine epithelial cell organization”. Further, in series [6], the “ADRA1B fold change (FC)” value is recorded as −1.81, the “ARGI fold change (FC)” value is −1.42, the “DUSP1 fold change [FC]” value came out at 1.05 and the “IL24 fold change (FC)” value was 1.55. Further, in series [6] (RNA sequencing), the “number of DEGs” value came out at 410, the “number of down-regulated DEGs” value is reported as 252 and the “number of up-regulated DEGs” value amounted to 158. In the series with ovary, the “number of follicles at the primordial, primary, secondary, or preantral phases” value is reported as “does not significantly affect” and the “total number of follicles in the ovary” value is “does not significantly affect”. For the same compound, the “serum levels vs reference range of C57BL/6 mice” value in series [7] is recorded as “overlap with the reference range”.
